Experimental data published in publication PMC9804084, “Multiple drug transporters contribute to the brain transfer of levofloxacin” (CNS Neuroscience & Therapeutics, 2022).
Like-named read-outs stand apart in the source and are kept apart here.

Assay: In vivo microdialysis pharmacokinetics of LVFX without transporter inhibitors
Design: species or system rat
Conditions: for AUC(0-inf) / Cmax / AUC(0-t) / Tmax / Kp / MRT / half-life: rat; for AUC(0-inf) / Cmax / AUC(0-t) / Tmax / MRT / half-life: iv; for AUC(0-inf) / Cmax / AUC(0-t) / MRT / half-life: 50 mg/kg, mean ± SD; for AUC(0-t): read-out: AUC0–180 (converted); for Kp: intravenous, LVFX 50 mg/kg tail vein, no inhibitor
Procedure: On the day of surgery, rats were anesthetized using inhaled isoflurane via a facemask. The rats were placed in a stereotaxic frame (Gene&I), and the body temperature was maintained with a homoeothermic blanket set at 37°C. A midline incision was made to expose the skull. According to the Paxinos and Watson atlas, two microdialysis intracerebral guide cannulae (Eicom Co.) were implanted into the hippocampus CA1 region (Hp‐CA1 coordinates: AP −4.16 mm; ML −2.2 mm; DV −2.9 mm) and lateral ventricle (LV coordinates: AP −1.4 mm; ML +2.2 mm; DV −3.4 mm). Fixed to the skull using a screw and dental cement. After 3 days of recovery, the rats were anesthetized with isoflurane again. An intravascular probe (TP‐100‐20; 20 mm, Eicom Co.) was implanted into the jugular vein toward the right atrium. After the blood microdialysis probe was positioned within the jugular vein, the pipeline was connected to perfuse with ACD solution (citric acid 3.5 mM; sodium citrate 7.5 mM; dextrose 13.6 mM) at a flow rate of […], and the Hamilton microinjection pump was used for continuous perfusion. After stopping isoflurane inhalation, the rats were allowed to wake up naturally on the homoeothermic blanket. The awake rats were placed in a device that allowed them to move freely. Animals were allowed to recover for an additional 24 h.
All microdialysate concentrations (C m) from the hippocampal ECF and lateral ventricle CSF were converted to the unbound drug concentration (C u) at the target site using the following formula: C u = C m/R dial.
A total of 32 rats were randomly divided into the following groups: • Control group, N = 12: vehicle solution + LVFX (50 mg/kg). • TAR group, N = 5: Tariquidar (8 mg/kg) + LVFX (50 mg/kg). • Ko143 group, N = 5: Ko143 (15 mg/kg) + LVFX (50 mg/kg). • MK571 group, N = 5: MK571 (20 mg/kg) + LVFX (50 mg/kg). • PRO group, N = 5: Probenecid (50 mg/kg) + LVFX (50 mg/kg).
Given that the solvents of intervention drugs were different, the control group was subdivided into four subgroups (n = 3). According to the preparation method of the transporter regulator, an equal volume of solvent was used as the control.
Levofloxacin was freshly dissolved in isotonic saline and administered via tail vein injection. Thirty minutes before LVFX administration, the intervention drugs of each group were injected intraperitoneally. To reduce the possible effect of solvents on BBB or BCSFB permeability of LVFX, we prioritized water as the solvent. However, Tariquidar and Ko143 are insoluble in water, and a cosolvent must be used to prepare agents that animals can tolerate. According to the different physicochemical properties of these four inhibitors, the preparation of each transporter inhibitor solution in this experiment was as follows. • P‐glycoprotein (P‐gp) inhibitor Tariquidar[22]: Tariquidar was freshly dissolved in DMSO to 8 mg/ml and then diluted to 4 mg/ml with a solution containing 10% Tween‐80, 25% PEG300, and 65% sterile water. • Breast cancer resistance protein (BCRP) inhibitor Ko143[23]: Ko143 was freshly dissolved in DMSO to 15 mg/ml and then diluted to 7.5 mg/ml with a solution containing 10% Tween‐80, 25% PEG300, and 65% sterile water. • Multidrug resistance‐associated proteins (MRPs) inhibitor MK571[24]: MK571 sodium salt hydrate was dissolved in 1.25% (w/v) aq sodium hydrogen carbonate (NaHCO3) solution to obtain a concentration of 10 mg/ml. • Organic anion transporters (OATs) inhibitor probenecid[25]: Probenecid was dissolved in NaOH (pH = 9.0–9.2) alkalized physiological saline to obtain a concentration of 25 mg/ml.
The pipelines where the blood and brain probes were installed were perfused at the speed of 2 μl/min with ACD solution and ACSF, respectively. Two brain probes were inserted into guide cannulas of the target site and allowed to equilibrate for 1 h. Subsequently, the rats were treated according to their corresponding groups in the device where they could move freely.

[1] = CSF (lateral ventricle microdialysate), CSF, Group 1: vehicle solution of Tariquidar/Ko143 + LVFX 50 mg/kg, n=3
[2] = CSF (lateral ventricle microdialysate), CSF, Group 2: 1.25% NaHCO3 solution + LVFX 50 mg/kg, n=3
[3] = CSF (lateral ventricle microdialysate), CSF, Group 4: LVFX 50 mg/kg alone, n=3
[4] = CSF (lateral ventricle microdialysate), pH 9, CSF, Group 3: physiological saline alkalinized with NaOH (pH 9.0–9.2) + LVFX 50 mg/kg, n=3
[5] = CSF, CSF, Group 1: vehicle solution of Tariquidar/Ko143 + LVFX 50 mg/kg, n=3
[6] = CSF, CSF, Group 2: 1.25% NaHCO3 solution + LVFX 50 mg/kg, n=3
[7] = CSF, CSF, Group 4: LVFX 50 mg/kg alone, n=3
[8] = CSF, pH 9, CSF, Group 3: physiological saline alkalinized with NaOH (pH 9.0–9.2) + LVFX 50 mg/kg, n=3
[9] = blood (microdialysate, unbound), blood, Group 1: vehicle solution of Tariquidar/Ko143 + LVFX 50 mg/kg, n=3
[10] = blood (microdialysate, unbound), blood, Group 2: 1.25% NaHCO3 solution + LVFX 50 mg/kg, n=3
[11] = blood (microdialysate, unbound), blood, Group 4: LVFX 50 mg/kg alone, n=3
[12] = blood (microdialysate, unbound), pH 9, blood, Group 3: physiological saline alkalinized with NaOH (pH 9.0–9.2) + LVFX 50 mg/kg, n=3
[13] = blood, blood, control group, vehicle + LVFX 50 mg/kg tail vein, N=12
[14] = brain ECF, brain ECF, Group 1: vehicle solution of Tariquidar/Ko143 + LVFX 50 mg/kg, n=3
[15] = brain ECF, brain ECF, Group 2: 1.25% NaHCO3 solution + LVFX 50 mg/kg, n=3
[16] = brain ECF, brain ECF, Group 4: LVFX 50 mg/kg alone, n=3
[17] = brain ECF, pH 9, brain ECF, Group 3: physiological saline alkalinized with NaOH (pH 9.0–9.2) + LVFX 50 mg/kg, n=3
[18] = hippocampal brain ECF (microdialysate, unbound), hippocampal brain ECF, control group, vehicle + LVFX 50 mg/kg tail vein, N=12
[19] = lateral ventricle CSF (microdialysate, unbound), lateral ventricle CSF, control group, vehicle + LVFX 50 mg/kg tail vein, N=12

- T max (CSF, Group 2: 1.25% NaHCO3 solution + LVFX 50 mg/kg, n=3): 15 min
- T max (CSF, Group 4: LVFX 50 mg/kg alone, n=3): 15 min
- T max (blood, Group 2: 1.25% NaHCO3 solution + LVFX 50 mg/kg, n=3): 15 min
- T max (blood, control group, vehicle + LVFX 50 mg/kg tail vein, N=12): 15 min
- T max (brain ECF, Group 2: 1.25% NaHCO3 solution + LVFX 50 mg/kg, n=3): 15 min
- T max (brain ECF, Group 4: LVFX 50 mg/kg alone, n=3): 15 min
- AUC(0-inf) [1]: 4080 ng·h/mL
- Cmax [1]: 3540 ± 150 ng/mL
- AUC(0-t) [1]: 3810 ng·h/mL
- AUC(0-inf) [2]: 4490 ng·h/mL
- Cmax [2]: 3860 ± 320 ng/mL
- AUC(0-t) [2]: 4140 ng·h/mL
- Cmax [3]: 3480 ± 370 ng/mL
- AUC(0-t) [3]: 4330 ng·h/mL
- AUC(0-inf) [4]: 4950 ng·h/mL
- Cmax [4]: 3700 ± 140 ng/mL
- AUC(0-t) [4]: 4490 ng·h/mL
- Tmax [1]: 15 min
- Tmax (CSF (lateral ventricle microdialysate), CSF, Group 3: physiological saline alkalinized with NaOH (pH 9.0–9.2) + LVFX 50 mg/kg, n=3): 15 min
- Kp (CSF / blood (unbound, microdialysate), AUCu,CSF/AUCu,blood, control group, N=12, read-out: K p,uu,CSF): 0.412 ± 0.024
- MRT [5]: 70.8 min
- half-life [5]: 38 ± 11.9 min
- MRT [6]: 74 min
- half-life [6]: 50.6 ± 8.78 min
- AUC(0-inf) [7]: 4680 ng·h/mL
- MRT [7]: 76.7 min
- half-life [7]: 42.2 ± 5.6 min
- MRT [8]: 81.8 min
- half-life [8]: 45.8 ± 19.7 min
- AUC(0-inf) [9]: 11000 ng·h/mL
- MRT [9]: 63.9 min
- half-life [9]: 40.5 ± 5.68 min
- AUC(0-t) [9]: 10300 ng·h/mL
- AUC(0-inf) [10]: 11700 ng·h/mL
- MRT [10]: 73.9 min
- half-life [10]: 50.5 ± 9.53 min
- AUC(0-t) [10]: 10700 ng·h/mL
- AUC(0-inf) [11]: 11700 ng·h/mL
- MRT [11]: 86.2 min
- half-life [11]: 60.6 ± 11.2 min
- AUC(0-t) [11]: 10200 ng·h/mL
- AUC(0-inf) [12]: 10100 ng·h/mL
- MRT [12]: 69.3 min
- half-life [12]: 45.3 ± 6.27 min
- AUC(0-t) [12]: 9340 ng·h/mL
- Tmax [11]: 15 min
- Cmax (blood, blood, Group 1: vehicle solution of Tariquidar/Ko143 + LVFX 50 mg/kg, n=3): 10400 ± 1040 ng/mL
- Cmax (blood, blood, Group 2: 1.25% NaHCO3 solution + LVFX 50 mg/kg, n=3): 10700 ± 320 ng/mL
- Cmax (blood, blood, Group 4: LVFX 50 mg/kg alone, n=3): 9970 ± 590 ng/mL
- AUC(0-inf) [13]: 11100 ng·h/mL
- Cmax [13]: 10200 ± 700 ng/mL
- MRT [13]: 73.3 min
- half-life [13]: 49.2 ± 10.6 min
- AUC(0-t) [13]: 10200 ng·h/mL
- Cmax (blood, pH 9, blood, Group 3: physiological saline alkalinized with NaOH (pH 9.0–9.2) + LVFX 50 mg/kg, n=3): 9780 ± 390 ng/mL
- Kp (brain ECF / blood, AUCu,ECF/AUCu,blood, control group, N=12, read-out: K p,uu,ECF): 0.34 ± 0.017
- AUC(0-inf) [14]: 3730 ng·h/mL
- Cmax [14]: 2920 ± 520 ng/mL
- MRT [14]: 74.1 min
- half-life [14]: 39.8 ± 14.3 min
- AUC(0-t) [14]: 3480 ng·h/mL
- AUC(0-inf) [15]: 3600 ng·h/mL
- Cmax [15]: 2720 ± 150 ng/mL
- MRT [15]: 84.1 min
- half-life [15]: 53.4 ± 9.24 min
- AUC(0-t) [15]: 3240 ng·h/mL
- AUC(0-inf) [16]: 3940 ng·h/mL
- Cmax [16]: 3050 ± 760 ng/mL
- MRT [16]: 80.9 min
- half-life [16]: 49 ± 17.9 min
- AUC(0-t) [16]: 3600 ng·h/mL
- AUC(0-inf) [17]: 3820 ng·h/mL
- Cmax [17]: 2540 ± 170 ng/mL
- MRT [17]: 84 min
- half-life [17]: 49.8 ± 20.7 min
- AUC(0-t) [17]: 3470 ng·h/mL
- AUC(0-inf) [18]: 3770 ng·h/mL
- Cmax [18]: 2710 ± 300 ng/mL
- MRT [18]: 80.8 min
- half-life [18]: 48 ± 14.7 min
- AUC(0-t) [18]: 3450 ng·h/mL
- Tmax [18]: 15 min
- Tmax (blood, Group 1: vehicle solution of Tariquidar/Ko143 + LVFX 50 mg/kg, n=3): 15 min
- Tmax (blood, Group 3: physiological saline alkalinized with NaOH (pH 9.0–9.2) + LVFX 50 mg/kg, n=3): 15 min
- Tmax (brain ECF, Group 1: vehicle solution of Tariquidar/Ko143 + LVFX 50 mg/kg, n=3): 15 min
- Tmax (brain ECF, Group 3: physiological saline alkalinized with NaOH (pH 9.0–9.2) + LVFX 50 mg/kg, n=3): 15 min
- AUC(0-inf) [19]: 4550 ng·h/mL
- Cmax [19]: 3650 ± 270 ng/mL
- MRT [19]: 75.8 min
- half-life [19]: 44.1 ± 11.8 min
- AUC(0-t) [19]: 4190 ng·h/mL
- Tmax [19]: 15 min
- difference in LVFX concentration (and AUC value) between brain ECF and CSF (with or without treatment with transporter inhibitors): < 3 fold
Structure (SMILES): C[C@H]1COc2c(N3CCN(C)CC3)c(F)cc3c(=O)c(C(=O)O)cn1c23 [LVFX, Levofloxacin]
